Measurements taken from patent US20250374919A1, “AQUEOUS SUSPENSION AGROCHEMICAL COMPOSITION CONTAINING NATURAL RUBBER” (SUMITOMO CHEMICAL COMPANY, LIMITED, priority 2022, published 2025).

Experiment: Water solubility of agrochemical active ingredient at 20° C.
Format: physicochemical

Row | Compound | water solubility at 20° C.
1 | Cc1nnc(Cl)c(-c2c(F)cccc2F)c1-c1ccccc1 [Pyridachlometyl] | 0.8 ppm
2 | Inpyrfluxam | 16.4 ppm
